# Reference: US7902373B2 (Pfizer Inc, priority 2006, dated 2011)
# Biological target: human recombinant H-PGDS (Homo sapiens, UniProt O60760)
# Experiment: Fluorescence intensity h-PGDS TBA enzyme assay
# Type: biochemical
# Details: Examples up to 622 (and 3a, 3b)
# Chain of human recombinant H-PGDS (O60760 whole entry): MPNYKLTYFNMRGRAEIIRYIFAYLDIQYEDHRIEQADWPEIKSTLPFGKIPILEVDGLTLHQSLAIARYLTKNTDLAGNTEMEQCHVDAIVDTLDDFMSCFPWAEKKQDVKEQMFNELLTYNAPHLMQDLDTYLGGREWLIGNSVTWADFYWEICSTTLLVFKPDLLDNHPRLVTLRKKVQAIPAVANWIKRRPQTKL
row,Compound,IC50 [nM]
1,"O=C(NC1CCN(Cc2ccc(OC(F)F)c(OC3CC3)c2)CC1)c1ccc(-c2cccc(F)c2)nc1 [Example 486, N-{1-[3-(Cyclopropyloxy)-4-(difluoromethoxy)benzyl]piperidin-4-yl}-6-(3-fluorophenyl)nicotinamide]",2.32
2,"Cn1nnnc1N1CCC(NC(=O)c2ccc(-c3cccc(F)c3)nc2)CC1 [Example 51, 6-(3-Fluoro-phenyl)-N-[1-(1-methyl-1H-tetrazol-5-yl)-piperidin-4-yl]-nicotinamide]",0.266
3,"O=C(NC1CCN(c2nnnn2-c2ccc3c(c2)CCC3)CC1)c1ccc(-c2cccc(F)c2)nc1 [Example 92, N-{1-[1-(2,3-Dihydro-1H-inden-5-yl)-1H-tetrazol 5-yl]piperidin-4-yl}-6-(3-fluorophenyl)nicotinamide]",5.15
4,"CN(C)CC1(CN2CCC(NC(=O)c3ccc(-c4cccc(F)c4)nc3)CC2)CCCC1 [Example 277, N-[1-({1-[(Dimethylamino)methyl]cyclopentyl}methyl)piperidin-4-yl]-6-(3-fluorophenyl)nicotinamide]",5.72
5,"CC(C)(C)OC(=O)c1ccc(N2CCC(NC(=O)c3ccc(-c4cccc(F)c4)nc3)CC2)nc1 [Example 559, tert-Butyl 6-[4-({[6-(3-fluorophenyl)pyridin-3-yl]carbonyl}amino)piperidin-1-yl]nicotinate]",10.6
6,"O=C(NC1CCN(C2CCC(O)(c3nccs3)CC2)CC1)c1ccc(-c2cccc(F)c2)nc1 (stereo not drawn) [Example 555, 6-(3-Fluorophenyl)-N-{1-[4-hydroxy-4-(1,3-thiazol-2-yl)cyclohexyl]piperidin-4-yl}nicotinamide]",0.928
7,"Cc1ncc(CN2CCC(NC(=O)c3ccc(-c4cccc(F)c4)nc3)CC2)cn1 [Example 443, 6-(3-Fluorophenyl)-N-{1-[(2-methylpyrimidin-5-yl)methyl]piperidin-4-yl}nicotinamide]",1.59
8,"O=C(NC1CCN(Cc2nc3c(s2)CCCC3)CC1)c1ccc(-c2cccc(F)c2)nc1 [Example 340, 6-(3-Fluorophenyl)-N-[1-(4,5,6,7-tetrahydro-1,3-benzothiazol-2-ylmethyl)piperidin-4-yl]nicotinamide]",1.17
9,"O=C(NC1CCN(c2ccc(C(=O)c3ccccn3)cn2)CC1)c1ccc(-c2cccc(F)c2)nc1 [Example 149, 6-(3-Fluorophenyl)-N-{1-[5-(pyridin-2-ylcarbonyl)pyridin-2-yl]piperidin-4-yl}nicotinamide]",1.82
10,"COc1cccc(C2(CN3CCC(NC(=O)c4ccc(-c5cccc(F)c5)nc4)CC3)CCOCC2)c1 [Example 286, 6-(3-Fluorophenyl)-N-(1-{[4-(3-methoxyphenyl)tetrahydro-2H-pyran-4-yl]methyl}piperidin-4-yl)nicotinamide]",1.21
11,"CN(CCCN1CCC(NC(=O)c2ccc(-c3cccc(F)c3)nc2)CC1)C(=O)OC(C)(C)C [Example 269, tert-Butyl {3-[4-({[6-(3-fluorophenyl)pyridin-3-yl]carbonyl}amino)piperidin-1-yl]propyl}methylcarbamate]",3.5
12,"O=C(NC1CCN(Cc2ccc(-n3ccnn3)cc2)CC1)c1ccc(-c2cccc(F)c2)nc1 [Example 492, 6-(3-Fluorophenyl)-N-{1-[4-(1H-1,2,3-triazol-1-yl)benzyl]piperidin-4-yl}nicotinamide]",0.285
13,"O=C(NC1CCN(Cc2nc3ccccn3c2Br)CC1)c1ccc(-c2cccc(F)c2)nc1 [Example 414, N-{1-[(3-Bromoimidazo[1,2-a]pyridin-2-yl)methyl]piperidin-4-yl}-6-(3-fluorophenyl)nicotinamide]",0.35
14,"O=C(NC1CCN(c2ncnc3c2ncn3C2CCCC2)CC1)c1ccc(-c2cccc(F)c2)nc1 [Example 112, N-[1-(9-Cyclopentyl-9H-purin-6-yl)piperidin-4-yl]-6-(3-fluorophenyl)nicotinamide]",1.87
15,"Cn1nccc1-c1nc(CN2CCC(NC(=O)c3ccc(-c4cccc(F)c4)nc3)CC2)nn1C [Example 480, 6-(3-Fluorophenyl)-N-(1-{[1-methyl-5-(1-methyl-1H-pyrazol-5-yl)-1H-1,2,4-triazol-3-yl]methyl}piperidin-4-yl)nicotinamide]",2.69
16,"COc1cc(CN2CCC(NC(=O)c3ccc(-c4cccc(F)c4)nc3)CC2)ccc1F [Example 192, N-[1-(4-Fluoro-3-methoxybenzyl)piperidin-4-yl]-6-(3-fluorophenyl)nicotinamide]",0.701
17,"Cn1ncc(CN2CCC(NC(=O)c3ccc(-c4cccc(F)c4)nc3)CC2)c1-c1cccc(F)c1 [Example 507, 6-(3-Fluorophenyl)-N-(1-{[5-(3-fluorophenyl)-1-methyl-1H-pyrazol-4-yl]methyl}piperidin-4-yl)nicotinamide]",0.551
18,"O=C(NC1CN(c2nc3ccccc3o2)C1)c1ccc(-c2cccc(F)c2)nc1 [Example 606, N-[1-(1,3-Benzoxazol-2-yl)azetidin-3-yl]-6-(3-fluorophenyl)nicotinamide]",10.8
19,"Cc1nc(N2CCC(NC(=O)c3ccc(-c4cccc(F)c4)nc3)CC2)ccc1C#N [Example 175, N-[1-(5-Cyano-6-methylpyridin-2-yl)piperidin-4-yl]-6-(3-fluorophenyl)nicotinamide]",5.4
20,"Cc1cc(N2CCC(NC(=O)c3ccc(-c4cccc(F)c4)nc3)CC2)nc(N)n1 [Example 45, N-[1-(2-Amino-6-methylpyrimidin-4-yl)piperidin-4-yl]-6-(3-fluorophenyl)nicotinamide]",0.773
21,"O=C(NC1CCN(Cc2cccc(-n3cccn3)c2)CC1)c1ccc(-c2cccc(F)c2)nc1 [Example 367, 6-(3-Fluorophenyl)-N-{1-[3-(1H-pyrazol-1-yl)benzyl]piperidin-4-yl}nicotinamide]",0.707
22,"O=C(NC1CCN(c2ncc(Br)cn2)CC1)c1ccc(-c2cccc(F)c2)nc1 [Example 127, N-[1-(5-Bromopyrimidin-2-yl)piperidin-4-yl]-6-(3-fluorophenyl)nicotinamide]",4.01
23,"Cc1nn(C)c(C)c1NC(=O)c1ccc(N2CCC(NC(=O)c3ccc(-c4cccc(F)c4)nc3)CC2)nn1 [Example 89, 6-[4-({[6-(3-Fluorophenyl)pyridin-3-yl]carbonyl}amino)piperidin-1-yl]-N-(1,3,5-trimethyl-1H-pyrazol-4-yl)pyridazine-3-carboxamide]",0.365
24,"CCOC(=O)N1CCC(NC(=O)c2ccc(-c3cc(F)cc(F)c3)nc2)CC1 [Example 33, Ethyl 4-({[6-(3,5-difluorophenyl)pyridin-3-yl]carbonyl}amino)piperidine-1-carboxylate]",2.41
25,"COc1cc(CN2CCC(NC(=O)c3ccc(-c4cccc(F)c4)nc3)CC2)cc2c1OCCO2 [Example 494, 6-(3-Fluorophenyl)-N-{1-[(8-methoxy-2,3-dihydro-1,4-benzodioxin-6-yl)methyl]piperidin-4-yl}nicotinamide]",0.817
26,"COCn1c(CN2CCC(NC(=O)c3ccc(-c4cccc(F)c4)nc3)CC2)nc2ccccc21 [Example 447, 6-(3-Fluorophenyl)-N-(1-{[1-(methoxymethyl)-1H-benzimidazol-2-yl]methyl}piperidin-4-yl)nicotinamide]",1.1
27,"O=C(NC1CCN(Cc2ccno2)CC1)c1ccc(-c2cccc(F)c2)nc1 [Example 359, 6-(3-Fluorophenyl)-N-[1-(isoxazol-5-ylmethyl)piperidin-4-yl]nicotinamide]",0.443
